Where “and” joins values, the source holds several entries; their conditions need not be identical. Identical values can stand only once.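 Test compounds were applied to cells in 96-well plates for 48 hours at 5 doses. Abbreviation: GI50, concentration required for 50% inhibition of growth. TGI marks complete inhibition of growth.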
How the values were obtained:
Assay in all cases: DTP human tumour cell line panel, 48 h
[1] = test system: MALME-3M melanoma
[2] = test system: TK-10 renal
[3] = test system: NCI-H460 lung
[4] = test system: SN12C renal
[5] = test system: M14 melanoma
[6] = test system: HCT-15 colon
[7] = test system: SF-268 CNS
[8] = test system: HT29 colon
[9] = test system: CCRF-CEM leukemia
[10] = test system: UACC-257 melanoma

Row | Compound | TGI [1] [µM] | TGI [2] | TGI [3] | TGI [4] [µM] | TGI [5] [µM] | TGI [6] [µM] | TGI [7] [µM] | TGI [8] | TGI [9] [µM] | TGI [10] [µM] | GI50 [1] | GI50 [3] | GI50 [4] | GI50 [6] | GI50 [7] | GI50 [8] | GI50 [9] | GI50 [10] | GI50 [2] [µM]
1 | O=C(c1cc(Cl)cc(Cl)c1)N(Cc1cccnc1)C(=S)N(Cc1cccnc1)C(=O)c1cc(Cl)cc(Cl)c1 | > 100 | 89.6 µM | > 100 µM | > 100 | 72 | 83.3 | > 100 | > 100 µM | > 100 | > 100 |  |  |  |  |  |  |  |  | 
2 | CC[C@@]1(O)C(=O)OCc2c1cc1n(c2=O)Cc2cc3c(CN(C)C)c(O)ccc3nc2-1 |  | 14.2 µM and 64.8 µM and 88.7 µM | 0.499 µM and 1.58 µM and 0.222 µM |  |  |  |  | 8.1 µM and 20.2 µM and 6.7 µM |  |  | 0.0881 µM and 0.157 µM and 0.39 µM | < 0.01 µM and 0.00456 µM and 0.021 µM | < 0.01 µM and 0.00456 µM and 0.0248 µM | 0.304 µM and 0.0813 µM and 0.67 µM | < 0.01 µM and 0.00517 µM and 0.0175 µM | 0.0669 µM and 0.0589 µM and 0.24 µM | < 0.01 µM and 0.0032 µM | 0.106 µM and 0.0677 µM and 0.297 µM | 
3 | O=c1ccn(Cc2ccccc2CCl)c(=O)[nH]1 | 40.6 | > 100 µM | > 100 µM | 59.4 | 73.9 | 35.8 | 75.8 | 68.6 µM | > 100 | 98.8 |  |  |  |  |  |  |  |  | 
4 | O=c1ccc2c(Cl)cccc2o1 | > 100 | > 100 µM | > 100 µM | > 100 | > 100 |  | > 100 |  | > 100 | > 100 |  |  |  |  |  |  |  |  | 
5 | O=c1oc2ccc3ccccc3c2cc1-c1nc(-c2ccc([N+](=O)[O-])cc2)n[nH]1 | > 100 |  | > 100 µM |  | > 100 | > 100 | 4.56 | > 100 µM | > 100 | > 100 |  |  |  |  |  |  |  |  | 
6 | O=C(CC(Cc1ccccc1)c1ccc(Oc2ccccc2)cc1)Nc1cccc(Cl)c1 (stereo not drawn) | > 100 | > 100 µM | > 100 µM | > 100 | > 100 | > 100 | > 100 | > 100 µM | 21 | 76.2 |  |  |  |  |  |  |  |  | 
7 | Fc1cc(C2=Nn3c(CNc4ccc(Cl)cc4)nnc3S/C2=C\c2ccc(-c3ccc(Cl)cc3)o2)c(Cl)cc1Cl | 60.7 | > 100 µM | > 100 µM | > 100 | > 100 | > 100 | > 100 | > 100 µM | > 100 | > 100 |  |  |  |  |  |  |  |  | 
8 | CC(C)(C)CNCCCNc1ccc(Cl)cc1 | 53.9 | 73.9 µM | > 100 µM | > 100 | 58.6 | > 100 | > 100 | 56.5 µM | > 100 | 58.1 |  |  |  |  |  |  |  |  | 
9 | OC(c1ccccc1)C1CC2C=CC1C2 (stereo not drawn) | > 100 | > 100 µM | > 100 µM | > 100 | > 100 | > 100 | > 100 | > 100 µM | > 100 | > 100 |  |  |  |  |  |  |  |  | 
10 | Clc1ccc(OCc2nnc3sc(SSc4nn5c(COc6ccc(Cl)cc6)nnc5s4)nn23)cc1 | > 100 | > 100 µM | > 100 µM | > 100 | > 100 | > 100 | > 100 | > 100 µM | > 100 | > 100 |  |  |  | 86.2 µM |  |  | 76.7 µM |  | 73.2
11 | CSC1=C(SC)C(=O)c2cn(C)c(=O)cc2C1=O | 5.41 | 5.39 µM | 32 µM | 12.3 | 3.14 | 4.78 | 17 | 13.1 µM | 0.826 | 7.05 |  |  |  |  |  |  |  |  | 
12 | C1=Nc2ccccc2Cn2nncc21 | > 100 | > 100 µM | > 100 µM | > 100 | > 100 | > 100 | > 100 | > 100 µM | > 100 |  |  |  |  |  |  |  |  |  | 
13 | CC(C)=CC1C(COC(=O)c2ccccc2Cl)C1(C)C (stereo not drawn) | 70.3 | > 100 µM | > 100 µM | > 100 | > 100 | 75.4 | > 100 | > 100 µM | > 100 | > 100 |  |  |  |  |  |  |  |  | 
14 | CC(C(=O)NCCNC(=O)CCCC(=O)N(C)O)C(=O)NCCNC(=O)CCCC(=O)N(C)O | > 100 | > 100 µM | > 100 µM |  | > 100 | > 100 | > 100 | > 100 µM | > 100 | > 100 |  |  |  |  |  |  |  |  | 

Reference: PubChem BioAssay (NCI)
